# Calls of active or inactive are those of the source.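 Rule for the calls: active = a concentration killing half the fathead minnows in the acute test was determined; inconclusive = some fish died but not half at top dose; inactive = no fish died even at top dose.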
# Test system: Fathead minnow (Pimephales promelas) acute toxicity, lethality
# Experiment: DSSTox (EPAFHM) EPA Fathead Minnow Acute Toxicity
# Method in brief: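 Activity score is an integer 1–100 scaling of log10(1/LC50 in mmol) between dataset minimum and maximum, highest potency = 100. Underlying LC50 values (mg) come from the U.S. EPA MED database.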
Structure (SMILES),Potency,outcome
CS(C)=O,435000 µM,
O=Cc1cc(Cl)ccc1O,4.92 µM,
NC(=O)c1c(Cl)cccc1Cl,2470 µM,
CC1CNCC(C)O1 (configuration not stated),3360 µM,
CC(C)(c1cc(Cl)c(O)c(Cl)c1)c1cc(Cl)c(O)c(Cl)c1,3.63 µM,
C[CH2][Sn]([CH2]C)([CH2]C)[CH2]C,0.0468 µM,
CC(C)(C)SC(C)(C)C,199 µM,
C=C(C)C(=O)OCCO,1740 µM,
CC(=O)CC(=O)c1ccccc1,6.78 µM,
C#CC(C)O (configuration not stated),167 µM,
Cc1cc2nc3c(=O)[nH]c(=O)nc-3n(C[C@H](O)[C@H](O)[C@H](O)CO)c2cc1C,,inactive; moa not determined either due to lack of toxicity at saturation or late test res
CCOP(=S)(OCC)Oc1ccc(S(C)=O)cc1 (configuration not stated),140 µM,
CNC(=O)O/N=C(\C)SC,13 µM,
CCOCCOC(C)=O,319 µM,
c1ccc2ncccc2c1,602 µM,
O=C(Oc1ccccc1)c1ccccc1O,5.51 µM,
C#CCCO,515 µM,
CCCCc1ccc(N)cc1,68 µM,
Clc1nc(Cl)c(Cl)c(Cl)c1Cl,1.87 µM,
C1CCCCC1,53.8 µM,
ClCCN1CCCC1,900 µM,
COc1cc(C=O)ccc1O,551 µM,
CCNCCO,16600 µM,

Structure (SMILES),Potency,outcome
O=Cc1cccc(C(F)(F)F)c1,5.31 µM,
CC(C)(O)C(Cl)(Cl)Cl,362 µM,
CCC1(CCC(C)C)C(=O)NC(=O)NC1=O,377 µM,
O=CN(c1ccccc1)c1ccccc1,154 µM,
COC(=O)c1ccc(O)cc1O,272 µM,
O=[N+]([O-])c1ccc(Oc2ccccc2)cc1,12.3 µM,
CCOc1ccc(C=O)cc1,187 µM,
NC(=O)c1ccccc1O,736 µM,
CC1(C)CCC(C)(C)O1,1310 µM,
O=[N+]([O-])c1cc([N+](=O)[O-])c(Cl)cc1Cl,0.192 µM,
CNc1ccc(F)cc1,307 µM,
CCC1(c2ccccc2)C(=O)NC(=O)NC1=O,2080 µM,
CCCCCCCCCCCCCN,0.328 µM,
CC1(C)[C@@H]2CC[C@@]1(C)C(=O)[C@H]2Br,296 µM,
Oc1ccc(Cl)cc1Cl,47.5 µM,
O=Cc1c(F)c(F)c(F)c(F)c1F,5.61 µM,
CCCCSCCCC,24.5 µM,
CC(=O)OC(C)(C)C,2820 µM,
CC(=O)C(C)CN(C)C (configuration not stated),65.8 µM,
N#Cc1cccc(C(F)(F)F)c1,279 µM,
O=[N+]([O-])c1cccc(Cl)c1,119 µM,
CNC(=O)Oc1cccc2c1OC(C)(C)C2,3.81 µM,
Cc1ccc(N(C)C)cc1,362 µM,

Structure (SMILES),Potency,outcome
CCOC(=O)c1ccc(N)cc1,216 µM,
O=C(Oc1ccccc1)c1ccccc1C(=O)Oc1ccccc1,0.251 µM,
Oc1cccnc1Cl,4800 µM,
O=S(c1ccccc1)c1ccccc1,432 µM,
C=CCNc1ccccc1,270 µM,
BrCCCBr,10.4 µM,
COc1ccc(O)cc1,886 µM,
CCCCCCCCCCN,6.55 µM,
CCOP(=S)(Oc1ccc([N+](=O)[O-])cc1)c1ccccc1 (configuration not stated),0.243 µM,
C/C=N/O,1290 µM,
CCC(C)=O,44700 µM,
CCOC(=O)N(C(=O)OCC)C(=O)OCC,57 µM,
c1ccc(-c2cccc(-c3ccccc3)n2)cc1,0.908 µM,
Cc1nnc(N)nc1C,7670 µM,
CC(C)(C)SSC(C)(C)C,7.68 µM,
O=Cc1cccnc1,153 µM,
COC(=O)c1ccc(Cl)cc1[N+](=O)[O-],128 µM,
OCCCc1cccnc1,1090 µM,
ClCC(Cl)CCl,391 µM,
OCCN(CCO)c1ccccc1,4060 µM,
CC(Cl)CCl (configuration not stated),1120 µM,
C#CCN(CC#C)CC#C,2260 µM,
c1cc(CCc2ccncc2)ccn1,820 µM,

Structure (SMILES),Potency,outcome
N#CCCCCC#N,17900 µM,
CCCCOC(=O)/C=C/C(=O)OCCCC,2.76 µM,
Oc1cc(Cl)c(Cl)c(Cl)c1Cl,1.77 µM,
O=Cc1ccc(O)cc1O,95 µM,
CC1(C)OCC(CO)O1 (configuration not stated),126000 µM,
O=S(Cc1ccccc1)Cc1ccccc1,348 µM,
CCN(CC)CCO,15200 µM,
Nc1ccc(Cl)cc1,246 µM,
NCCN1CCNCC1,17000 µM,
Cc1ccccc1,368 µM,
CCCCCCC(C)N (configuration not stated),40.2 µM,
O=C1c2ccccc2C(=O)c2ccccc21,,inactive; moa not determined either due to lack of toxicity at saturation or late test res
CC(C)c1ccc2c(c1)CC[C@H]1[C@](C)(C(=O)O)CCC[C@]21C,6.99 µM,
CC(=O)c1ccncc1,1390 µM,
CC(C)OC(C)C,7690 µM,
CCCN(CCC)CCC,355 µM,
CCN(CCO)c1cccc(C)c1,295 µM,
O=C(O)c1cccc(C(=O)O)n1,1930 µM,
CCCCOc1ccccc1,38 µM,
c1ccc2c(c1)CCO2,680 µM,
CCC(C)C=O (configuration not stated),116 µM,
CCCCCCBr,20.9 µM,
N#Cc1cc(Cl)ccc1N,187 µM,
